Results taken from ChEMBL document CHEMBL4251653, “In vivo potent BM635 analogue with improved drug-like properties” (Eur J Med Chem, 2018).
In brackets after ≈: the same amount, converted by molar mass.

Key:
[1] = test system: Mycobacterium tuberculosis; assay: microbe, parasite or virus in culture; conditions: H37Rv, THP-1, 96 h
Description: Antitubercular activity against Mycobacterium tuberculosis H37Rv infected in human THP1 macrophages incubated for 4 days by luciferase reporter gene assay

HepG2 [2] = assay: Cytotoxicity against human HepG2 cells assessed as compound concentration causing changes in nuclear morphology by Cell Health assay; format: cell-based
HepG2 [3] = assay: Cytotoxicity against human HepG2 cells assessed as compound concentration causing changes in membrane permeability by Cell Health assay; format: cell-based
HepG2 [4] = assay: Cytotoxicity against human HepG2 cells assessed as compound concentration causing changes in mitochondrial potential by Cell Health assay; format: cell-based
[5] = test system: Mycobacterium tuberculosis; assay: microbe, parasite or virus in culture; conditions: 144 h
Description: Antitubercular activity against Mycobacterium tuberculosis after 6 days by resazurin-based fluorescence assay

[6] = Cytotoxicity against human HepG2 cells incubated for 48 hrs by Cell-titer Glo assay; format: cell-based; conditions: read-out: TC50
in vitro = conditions: human, HepG2 cells
Description: Selectivity index, ratio of TC50 for human HepG2 cells to MIC for Mycobacterium tuberculosis

[7] = target: Voltage-gated inwardly rectifying potassium channel KCNH2 (Homo sapiens, UniProt Q12809); assay: Inhibition of human ERG by [3H]dofetilide binding displacement assay
Chain of Voltage-gated inwardly rectifying potassium channel KCNH2 (Q12809 whole entry): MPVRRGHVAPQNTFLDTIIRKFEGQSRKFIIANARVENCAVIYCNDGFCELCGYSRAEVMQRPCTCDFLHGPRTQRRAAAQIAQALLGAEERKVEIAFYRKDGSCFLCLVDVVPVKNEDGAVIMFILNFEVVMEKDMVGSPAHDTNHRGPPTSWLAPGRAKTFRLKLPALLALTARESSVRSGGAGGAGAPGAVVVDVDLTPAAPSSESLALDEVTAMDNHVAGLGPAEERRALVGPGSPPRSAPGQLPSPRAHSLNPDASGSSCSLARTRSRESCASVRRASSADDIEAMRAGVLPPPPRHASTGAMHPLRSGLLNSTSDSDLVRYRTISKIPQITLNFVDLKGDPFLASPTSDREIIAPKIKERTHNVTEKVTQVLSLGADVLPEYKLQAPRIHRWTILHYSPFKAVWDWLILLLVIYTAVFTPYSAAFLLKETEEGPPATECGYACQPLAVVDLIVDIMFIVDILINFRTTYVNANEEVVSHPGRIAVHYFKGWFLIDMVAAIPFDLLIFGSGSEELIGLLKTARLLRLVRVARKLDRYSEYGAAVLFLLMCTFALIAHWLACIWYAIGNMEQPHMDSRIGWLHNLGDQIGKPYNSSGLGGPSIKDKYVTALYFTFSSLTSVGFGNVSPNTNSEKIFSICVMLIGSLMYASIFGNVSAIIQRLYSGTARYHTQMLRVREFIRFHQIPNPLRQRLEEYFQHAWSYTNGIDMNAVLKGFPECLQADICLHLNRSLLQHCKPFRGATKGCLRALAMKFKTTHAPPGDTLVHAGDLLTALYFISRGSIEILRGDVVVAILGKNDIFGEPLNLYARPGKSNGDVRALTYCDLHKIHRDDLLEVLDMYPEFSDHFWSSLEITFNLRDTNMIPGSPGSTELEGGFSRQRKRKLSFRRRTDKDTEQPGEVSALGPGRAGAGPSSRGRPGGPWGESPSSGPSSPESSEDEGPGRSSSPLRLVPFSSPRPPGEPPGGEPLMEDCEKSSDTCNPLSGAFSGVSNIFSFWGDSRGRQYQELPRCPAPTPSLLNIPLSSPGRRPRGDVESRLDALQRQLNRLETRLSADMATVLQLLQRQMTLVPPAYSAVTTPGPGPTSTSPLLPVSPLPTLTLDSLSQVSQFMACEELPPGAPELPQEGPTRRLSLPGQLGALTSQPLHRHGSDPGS

Albumin = Albumin (Homo sapiens, UniProt P02768); assay: Binding affinity to human serum albumin; format: ADME; conditions: isolated protein
Chain of Albumin (P02768 whole entry): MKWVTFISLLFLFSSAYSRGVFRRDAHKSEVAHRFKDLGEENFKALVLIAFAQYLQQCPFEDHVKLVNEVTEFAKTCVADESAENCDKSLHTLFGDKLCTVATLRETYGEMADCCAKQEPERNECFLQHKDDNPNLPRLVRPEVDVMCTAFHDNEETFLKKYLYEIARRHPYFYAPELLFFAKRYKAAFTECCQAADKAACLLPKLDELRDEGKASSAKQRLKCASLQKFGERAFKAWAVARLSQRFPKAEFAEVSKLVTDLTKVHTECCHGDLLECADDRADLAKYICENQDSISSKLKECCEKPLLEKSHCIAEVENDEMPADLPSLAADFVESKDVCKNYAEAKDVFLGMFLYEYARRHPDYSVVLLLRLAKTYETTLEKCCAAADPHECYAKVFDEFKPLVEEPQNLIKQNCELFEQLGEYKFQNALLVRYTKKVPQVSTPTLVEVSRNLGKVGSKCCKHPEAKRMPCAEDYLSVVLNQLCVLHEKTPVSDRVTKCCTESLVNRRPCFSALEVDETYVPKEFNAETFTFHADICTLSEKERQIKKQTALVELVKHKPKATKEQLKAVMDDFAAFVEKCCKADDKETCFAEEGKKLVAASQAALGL

[8] = Kinetic solubility in pH 7.4 phosphate buffered saline incubated for 1 hr by chemiluminescent nitrogen detection method; format: physicochemical; conditions: read-out: Kinetic_solubility
[9] = Lipophilicity, log D of the compound at pH 7.4 by UV-HPLC method; format: physicochemical; conditions: buffer
[10] = Permeability of the compound by artificial membrane permeability assay; format: ADME; conditions: PAMPA; read-out: permeability

Row | SMILES | IC50 [1] | MIC [5] | CC50 at 48 h [6] | further results
1 | COCCCn1c(-c2ccc(C(C)C)cc2)cc(CN2CCOCC2)c1C | 1.25 µM | 1.3 µM (≈ 0.482 µg/mL) | – | Activity (HepG2 [2]): 32 µM; Activity (HepG2 [3]): 40 µM; Activity (HepG2 [4]): 50 µM
2 | Cc1[nH]c(-c2ccc(C(C)C)cc2)cc1CN1CCOCC1 | > 10 µM | 12.5 µM (≈ 3.73 µg/mL) | 1.6 µM | –
3 | CC(=O)Nc1ccc(-c2cc(CN3CCOCC3)c(C)n2-c2ccc(F)cc2)cc1 | 3.3 µM | 1.25 µM (≈ 0.509 µg/mL) | 80 µM | selectivity ratio (in vitro): 40
4 | Cc1c(CN2CCOCC2)cc(-c2ccc(C(C)C)cc2)n1-c1ccc(C(=O)O)cc1 | – | > 40 µM | > 100 µM | –
5 | Cc1c(CN2CCOCC2)cc(-c2ccc(C(F)(F)F)cc2)n1-c1ccc(F)cc1 | – | 0.6 µM (≈ 0.251 µg/mL) | > 100 µM | IC50 [7]: > 50 µM; selectivity ratio (in vitro): 167; Activity (Albumin): 98.33%; solubility kinetic at 1 h [8]: < 1 µM; logD ([9]; read-out: logD): 7.67; Papp [10]: 15 ×10⁻⁶ cm/s
6 | Cc1c(CN2CCOCC2)cc(-c2ccc(C(C)C)cc2)n1C1CCCC(O)C1 (configuration not stated) | – | > 40 µM | 20 µM | –
7 | Cc1c(CN2CCOCC2)cc(-c2ccc(Cl)cn2)n1-c1ccc(F)cc1 | > 10 µM | > 125 µM | > 100 µM | Activity (HepG2 [2]): > 200 µM; Activity (HepG2 [3]): > 200 µM; Activity (HepG2 [4]): > 200 µM
8 | Cc1c(CN2CCOCC2)cc(-c2ccc(C(C)C)cc2)n1C1CCOCC1 | – | 2.5 µM (≈ 0.956 µg/mL) | 50.1 µM | –
9 | COc1ccc(-c2cc(CN3CCOCC3)c(C)n2C(C)C)cc1 | – | 2.5 µM (≈ 0.821 µg/mL) | – | –
10 | Cc1c(CN2CCOCC2)cc(-c2ccc(C(C)C)cc2)n1CC(C)(C)O | 2.5 µM | 2.5 µM (≈ 0.926 µg/mL) | 40 µM | Activity (HepG2 [2]): 50 µM; Activity (HepG2 [3]): 100 µM; Activity (HepG2 [4]): 126 µM
11 | Cc1c(CN2CCOCC2)cc(-c2ccc(C(C)C)cc2)n1CC1CCOCC1 | 5.28 µM | > 5 µM | > 100 µM | –
12 | Cc1c(CN2CCOCC2)cc(-c2ccc(C(C)C)cc2)n1-c1ncccn1 | – | 40 µM (≈ 15.1 µg/mL) | > 100 µM | –
13 | Cc1c(CN2CCOCC2)cc(-c2ccc(Cl)cc2)n1C(C)C | – | 2.5 µM (≈ 0.832 µg/mL) | – | –
14 | Cc1c(CN2CCOCC2)cc(-c2ccc(C(F)(F)F)cc2)n1C1CCCCC1 | – | 1.25 µM (≈ 0.508 µg/mL) | > 100 µM | selectivity ratio (in vitro): > 167
15 | Cc1c(CN2CCOCC2)cc(-c2ccc(C(C)C)cc2)n1-c1cccc(C(=O)O)c1 | – | 40 µM (≈ 16.7 µg/mL) | > 100 µM | –
16 | Cc1c(CN2CCOCC2)cc(-c2ccc(C(C)C)cc2)n1CC1CCCO1 (configuration not stated) | 5 µM | 5 µM (≈ 1.91 µg/mL) | 32 µM | Activity (HepG2 [2]): 40 µM; Activity (HepG2 [3]): 50 µM; Activity (HepG2 [4]): 63 µM
17 | COCCn1c(-c2ccc(C(C)C)cc2)cc(CN2CCOCC2)c1C | 1.32 µM | 1.3 µM (≈ 0.463 µg/mL) | 50.1 µM | selectivity ratio (in vitro): 39
18 | Cc1c(CN2CCOCC2)cc(-c2ccc(C(C)C)cc2)n1C1CCN(C)CC1 | > 10 µM | > 5 µM | 20 µM | –
19 | Cc1c(CN2CCOCC2)cc(-c2ccc(C(C)C)cc2)n1CCC(=O)O | – | > 40 µM | > 100 µM | –
20 | Cc1c(CN2CCOCC2)cc(-c2ccc(C(C)C)cc2)n1C1CCC1 | 0.08 µM | 0.08 µM (≈ 0.0282 µg/mL) | 20 µM | IC50 [7]: 8 µM; Activity (HepG2 [2]): 25 µM; Activity (HepG2 [3]): 25 µM; Activity (HepG2 [4]): 32 µM; selectivity ratio (in vitro): 250; Activity (Albumin): 98.12%; solubility kinetic at 1 h [8]: 71 µM (≈ 25 µg/mL); logD ([9]; read-out: logD): 8.13; Papp [10]: 55 ×10⁻⁶ cm/s

Row | SMILES | IC50 [1] | MIC [5] | CC50 at 48 h [6] | further results
21 | Cc1c(CN2CCOCC2)cc(-c2ccc(C(F)(F)F)cc2)n1C1CCC1 | – | 1.25 µM (≈ 0.473 µg/mL) | 20 µM | selectivity ratio (in vitro): 67
22 | Cc1c(CN2CCOCC2)cc(-c2ccc(C(C)C)cc2)n1-c1ccc(N(C)C)cc1 | 2.5 µM | 1.25 µM (≈ 0.522 µg/mL) | 16 µM | selectivity ratio (in vitro): 13
23 | Cc1c(CN2CCOCC2)cc(-c2ccc(C(C)C)cc2)n1C1CCCCC1 | 0.63 µM | 0.3 µM (≈ 0.114 µg/mL) | > 100 µM | IC50 [7]: 50 µM; Activity (HepG2 [2]): > 200 µM; Activity (HepG2 [3]): > 200 µM; Activity (HepG2 [4]): > 200 µM; selectivity ratio (in vitro): > 267; Activity (Albumin): 98.1%; solubility kinetic at 1 h [8]: < 1 µM; logD [9]: 9.13; Papp [10]: 27 ×10⁻⁶ cm/s
24 | Cc1c(CN2CCOCC2)cc(-c2ccc(C(C)C)cc2)n1[C@@H]1CCCN(C)C1 | – | > 40 µM | 25 µM | –
25 | NNC(=O)c1ccncc1 [ISONIAZID] | – | 1.8 µM (≈ 0.247 µg/mL) | – | –
26 | Cc1c(CN2CCOCC2)cc(-c2ccc(C(C)C)cc2)n1C1CCCN(C(=O)OC(C)(C)C)C1 (single isomer, unassigned) | – | 30 µM (≈ 14.5 µg/mL) | 16 µM | –
27 | Cc1c(CN2CCOCC2)cc(-c2ccc(C(C)C)cc2)n1CCCC(=O)O | – | > 40 µM | > 100 µM | –
28 | Cc1c(CN2CCOCC2)cc(Cc2ccccc2)n1-c1ccc(F)cc1 | – | > 5 µM | 10 µM | –
29 | Cc1c(CN2CCOCC2)cc(-c2ccc(C(C)C)cc2)n1Cc1ccc(F)cc1 | 0.16 µM | 0.08 µM (≈ 0.0325 µg/mL) | 20 µM | IC50 [7]: 5 µM; selectivity ratio (in vitro): 250; Activity (Albumin): 98.47%; solubility kinetic at 1 h [8]: 11 µM (≈ 4.47 µg/mL); logD ([9]; read-out: logD): 8.2; Papp [10]: 30 ×10⁻⁶ cm/s
30 | Cc1c(CN2CCOCC2)cc(-c2ccc(C(C)C)cc2)n1[C@@H]1CCCNC1 | – | > 80 µM | 16 µM | –
31 | Cc1cc(CN2CCOCC2)c(C)n1-c1ccc(F)cc1 | > 10 µM | > 5 µM | > 100 µM | –
32 | Cc1c(CN2CCOCC2)cc(-c2ccc(C(F)(F)F)cc2)n1C(C)C | – | 2.5 µM (≈ 0.916 µg/mL) | 20 µM | –
33 | Cc1c(CN2CCOCC2)cc(-c2ccc(C(C)C)cc2)n1C1COC1 | 2.5 µM | 2.5 µM (≈ 0.886 µg/mL) | 80 µM | Activity (HepG2 [2]): 80 µM; Activity (HepG2 [3]): 80 µM; Activity (HepG2 [4]): 100 µM
34 | Cc1c(CN2CCOCC2)cc(-c2ccc(C(C)C)cc2)n1CC(C)C | 0.08 µM | 0.2 µM (≈ 0.0709 µg/mL) | 20 µM | IC50 [7]: 16 µM; selectivity ratio (in vitro): 100; Activity (Albumin): 97.12%; solubility kinetic at 1 h [8]: 47 µM (≈ 16.7 µg/mL); logD ([9]; read-out: logD): 8.46; Papp [10]: 43 ×10⁻⁶ cm/s
35 | Cc1c(CN2CCOCC2)cc(-c2ccc(C(C)C)cc2)n1C | 1.25 µM | 1.25 µM (≈ 0.391 µg/mL) | 16 µM | Activity (HepG2 [2]): 40 µM; Activity (HepG2 [3]): 40 µM; Activity (HepG2 [4]): 50 µM; selectivity ratio (in vitro): 13
36 | Cc1c(CN2CCOCC2)cc(C2CCCCC2)n1-c1ccc(F)cc1 | > 10 µM | > 5 µM | 50 µM | –
37 | Cc1c(CN2CCOCC2)cc(-c2ccc(C(C)C)cc2)n1C1CCN(C(=O)OC(C)(C)C)CC1 | > 10 µM | > 5 µM | – | –
38 | Cc1c(CN2CCOCC2)cc(-c2ccc(Cl)nc2)n1-c1ccc(F)cc1 | > 10 µM | > 5 µM | 80 µM | –
39 | Cc1cc(Cl)ccc1-c1cc(CN2CCOCC2)c(C)n1-c1ccc(F)cc1 | > 10 µM | 5 µM (≈ 1.99 µg/mL) | > 100 µM | Activity (HepG2 [2]): > 200 µM; Activity (HepG2 [3]): > 200 µM; Activity (HepG2 [4]): > 200 µM
